Reference: patent US20210283139A1, “BIFUNCTIONAL MOLECULES FOR TARGETING UCHL5” (AMPHISTA THERAPEUTICS LTD, priority 2018, published 2021)

What was measured:
Type in all cases: cell-based
Brd3 [1] = target: T1, Brd3 (Homo sapiens, UniProt Q15059); assay: Concentration-dependent BET degradation, immunoblot, HEK293 cells; parameters: endogenous in cells; host or cells: HEK293; details: HEK293, Brd3, 6 h treatment, 1 nM-10 μM
Experimental: (§1) Cell culture. HeLa (CCL-2) and HEK293 (CRL-1573) cells were purchased from ATCC and cultured in DMEM medium (Gibco) supplemented with 10% FBS, 100 μg/mL penicillin/streptomycin and L-glutamine. Cells were grown at 37° C. and 5% CO2, and were kept no longer than 30 passages. All cell lines were routinely tested for mycoplasma contamination using MycoAlert kit from Lonza.
(§2) Immunoblotting. proteins were separated by SDS-PAGE on NuPage 4-12% Bis-Tris gels, followed by transfer to Amersham Protran 0.45 NC nitrocellulose membrane (GE Healthcare) using wet transfer. Membranes were blocked using 5% w/v milk in Tris-buffered saline (TBS) with 0.1% Tween-20. Blots were probed (overnight at 4° C.) using anti-Brd2 (Abcam ab139690, 1:2,000 dilution), anti-Brd3 (Abcam ab50818, 1:500 dilution), and anti-Brd4 (Abcam ab128874, 1:1,000 dilution) primary antibodies, as appropriate. The next day, blots were washed with TBST and incubated (1 hr at RT) with anti-Tubulin hFAB-rhodamine (BioRad, 12004166) primary antibody, and either anti-rabbit IRDye 800CW (Licor 1:10,000 dilution) or anti-mouse IRDye 800CW (Licor 1:10,000 dilution) secondary antibody. Blots were developed using a Bio-Rad ChemiDoc MP Imaging System, and band quantification was performed using Image Studio software (LiCor). Band intensities were normalized to the tubulin loading control and reported as % of the average 0.1% DMSO vehicle intensity. Degradation data was plotted and analysed using Prism (Graphpad, version 8).
(§3) HeLa (5×10^5) and HEK293 (1×10^6) cells were seeded in standard 6-well plates (2 mL medium) overnight before treatment with compounds at the desired concentration (1 nM-10 μM), with a final DMSO concentration of 0.1% v/v. After 6 h treatment time, cells were washed with DPBS (Gibco) and lysed using 85 μL RIPA buffer (Sigma-Aldrich) supplemented with cOmplete Mini EDTA-free protease inhibitor cocktail (Roche) and benzonase. Lysates were clarified by centrifugation (20,000g, 10 min, 4° C.) and the total protein content of the supernatant was quantified using a Bradford colorimetric assay. Samples were prepared using equal amounts of total protein and LDS sample buffer (Invitrogen.
(§4) Representative blots in FIG. 3 show depletion of Brd2, Brd3 and Brd4 protein levels following treatment with increasing concentrations of representative compounds. Band intensities were normalized to the β-tubulin loading control and reported as % of the average 0.1% DMSO vehicle intensity, with each point representing mean±SEM of two independent experiments (n=2). Degradation data was plotted and analysed using Prism (Graphpad, version 8)

Brd2 [2] = target: T2, Brd2 (Homo sapiens, UniProt P25440); assay: as above; parameters: endogenous in cells; host or cells: HEK293; details: HEK293, Brd2, 6 h treatment, 1 nM-10 μM; read-out: Dmax (%) maximum degradation observed
T2 sequence (P25440 whole entry): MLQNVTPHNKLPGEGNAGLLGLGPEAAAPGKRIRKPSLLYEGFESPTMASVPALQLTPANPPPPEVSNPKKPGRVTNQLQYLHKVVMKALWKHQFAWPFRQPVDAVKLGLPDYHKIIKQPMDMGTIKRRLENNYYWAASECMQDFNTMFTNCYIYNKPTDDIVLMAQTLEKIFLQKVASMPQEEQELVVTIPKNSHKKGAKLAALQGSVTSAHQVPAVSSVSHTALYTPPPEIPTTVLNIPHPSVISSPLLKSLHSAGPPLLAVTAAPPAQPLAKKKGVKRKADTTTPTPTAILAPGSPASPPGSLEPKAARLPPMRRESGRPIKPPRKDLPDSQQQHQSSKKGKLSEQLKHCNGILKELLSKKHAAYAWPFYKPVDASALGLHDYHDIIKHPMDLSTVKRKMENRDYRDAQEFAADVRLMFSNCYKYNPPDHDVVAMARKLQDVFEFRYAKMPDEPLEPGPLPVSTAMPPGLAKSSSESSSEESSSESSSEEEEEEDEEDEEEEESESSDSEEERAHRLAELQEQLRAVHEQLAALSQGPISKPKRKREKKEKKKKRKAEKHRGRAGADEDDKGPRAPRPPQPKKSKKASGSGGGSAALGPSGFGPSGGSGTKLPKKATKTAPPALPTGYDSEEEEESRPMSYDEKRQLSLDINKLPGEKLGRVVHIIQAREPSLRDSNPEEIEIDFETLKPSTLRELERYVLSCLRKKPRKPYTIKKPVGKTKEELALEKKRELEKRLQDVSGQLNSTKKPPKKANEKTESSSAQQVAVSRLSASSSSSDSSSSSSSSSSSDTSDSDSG
Experimental: as §1, §2, §3, §4

Brd4 (S) [3] = target: T3, Brd4 (S) (Homo sapiens, UniProt O60885); assay: Concentration-dependent BET degradation, immunoblot, HeLa cells; details: 6 h treatment, 1 nM-10 μM, read-out: Dmax (%) maximum degradation observed
T3 construct: endogenous in cells; host or cells: HEK293, HeLa
Experimental: as §1, §2, §3, §4

Brd4 (L) [4] = target: T4, Brd4 (L) (Homo sapiens, UniProt O60885); assay: as above; details: 6 h treatment, 1 nM-10 μM, read-out: Dmax (%) maximum degradation observed
T4 construct: endogenous in cells; host or cells: HEK293, HeLa
Experimental: as §1, §2, §3, §4

Brd4 [5] = target: T5, Brd4 (Homo sapiens, UniProt O60885); assay: Negative SAR: Brd4 immunoblot in HEK293 cells, active vs negative control; details: HEK293, 1 μM, 6 h, three independent treatments
T5 construct: endogenous in cells; host or cells: HEK293, HAP1, MV4-11
Experimental: as §2
HEK293 (1×10^6) cells incubated with DMSO, 1 μM 05IB11 or 1 μM 05IB6 for 6 h with a final DMSO concentration of 0.1% v/v. Cells from three independent treatments (n=3) were lysed with RIPA buffer and immunoblotted for Brd4 and β-tubulin.

Brd3 [6] = target: T1, Brd3; assay: Concentration-dependent BET degradation, immunoblot, HeLa cells; parameters: endogenous in cells; host or cells: HeLa; details: Brd3, 6 h treatment, 1 nM-10 μM
Experimental: as §1, §2, §3, §4

Brd2 [7] = target: T2, Brd2; assay: as above; parameters: endogenous in cells; host or cells: HeLa; details: Brd2, 6 h treatment, 1 nM-10 μM, read-out: Dmax (%) maximum degradation observed
Experimental: as §1, §2, §3, §4

Brd4 (S) [8] = target: T3, Brd4 (S); assay: Concentration-dependent BET degradation, immunoblot, HEK293 cells; details: 6 h treatment, 1 nM-10 μM, read-out: Dmax (%) maximum degradation observed
Experimental: as §1, §2, §3, §4

Brd4 (L) [9] = target: T4, Brd4 (L); assay: as above; details: 6 h treatment, 1 nM-10 μM, read-out: Dmax (%) maximum degradation observed
Experimental: as §1, §2, §3, §4

Brd4 [10] = target: T5, Brd4; assay: Mechanistic evaluation of Brd4 degradation in HAP1 cells (bortezomib, degrasyn or I-BET726 pre-treatment); details: 6 h
Experimental: as §2
(§5) HAP1 (1×10^6) cells were seeded in standard 6-well plates (2 mL medium) overnight before pre-treatment with inhibitors (10 μM bortezomib, 5 μM degrasyn or 1 μM I-BET726). After a 0.5 h pre-incubation time, cells were subsequently treated with vehicle, 0.1 μM MZ1 or 0.1 μM 05IB9, yielding a final overall DMSO concentration of 0.2% v/v. After 6 h incubation, cells were washed with DPBS (Gibco) and lysed using 85 μL RIPA buffer (Sigma-Aldrich) supplemented with cOmplete Mini EDTA-free protease inhibitor cocktail (Roche) and benzonase. Lysates were clarified by centrifugation (20,000 g, 10 min, 4° C.) and the total protein content of the supernatant was quantified using a Bradford colorimetric assay. Samples were prepared using equal amounts of total protein and LDS sample buffer (Invitrogen).
Representative blots from HAP1 lysates in FIG. 9 show depletion of Brd4 protein levels following 6 h treatment with 0.1 μM 05IB9 or MZ1, in the presence and absence of 5 μM degrasyn and 10 μM bortezomib. Brd4 band intensities were normalized to β-tubulin loading control and reported in FIG. 9B as % of the average 0.1% DMSO vehicle intensity. Each bar is mean±SEM of three independent experiments performed in duplicate (n=3). […] Furthermore, excess […] competes with 05IB9, resulting in reduced degradation of Brd4.

Brd4 [11] = target: T5, Brd4; assay: Mechanistic evaluation of Brd4 degradation in HEK293 cells (degrasyn or I-BET726 pre-treatment); details: 6 h
Experimental: as §2
as §5, with “HEK293” for “HAP1”, “(5” for “(10 μM bortezomib, 5”

Brd4 [12] = target: T5, Brd4; assay: Proteasome dependency of Brd4 degradation in HEK293 cells (bortezomib pre-treatment); details: HEK293, 1 μM, 6 h
Experimental: as §2
as §5, with “HEK293” for “HAP1”, “10” for “inhibitors (10”, “bortezomib.” for “bortezomib, 5 μM degrasyn or 1 μM I-BET726).”, “1” for “0.1”, “05IB6,” for “05IB9,”

[13] = read-out: Dmax (%) maximum degradation observed

T1 sequence (Q15059 whole entry): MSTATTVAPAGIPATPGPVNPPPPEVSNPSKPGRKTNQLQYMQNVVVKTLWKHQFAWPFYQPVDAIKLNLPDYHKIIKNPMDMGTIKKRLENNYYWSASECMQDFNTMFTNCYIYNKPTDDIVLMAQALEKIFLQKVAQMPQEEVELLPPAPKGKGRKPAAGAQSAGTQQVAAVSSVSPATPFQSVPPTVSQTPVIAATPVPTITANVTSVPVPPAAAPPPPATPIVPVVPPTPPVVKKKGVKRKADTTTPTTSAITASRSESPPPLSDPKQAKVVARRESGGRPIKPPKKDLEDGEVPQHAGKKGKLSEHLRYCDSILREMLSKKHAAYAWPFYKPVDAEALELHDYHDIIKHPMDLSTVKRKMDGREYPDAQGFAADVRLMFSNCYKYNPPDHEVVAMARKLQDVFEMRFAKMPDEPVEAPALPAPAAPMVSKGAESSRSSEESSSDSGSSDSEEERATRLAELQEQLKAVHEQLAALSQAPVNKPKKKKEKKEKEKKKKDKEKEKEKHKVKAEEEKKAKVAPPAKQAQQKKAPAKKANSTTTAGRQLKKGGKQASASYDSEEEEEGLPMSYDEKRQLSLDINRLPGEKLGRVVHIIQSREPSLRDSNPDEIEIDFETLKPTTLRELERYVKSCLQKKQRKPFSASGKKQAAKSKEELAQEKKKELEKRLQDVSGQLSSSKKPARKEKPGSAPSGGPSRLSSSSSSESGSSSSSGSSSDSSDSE

| DC50 (Brd3 [1]) [nM] | Dmax (Brd3 [1]; [13]) [%] | Dmax (Brd2 [2]) [%] | Dmax (Brd4 (S) [3]) [%] | Dmax (Brd4 (L) [4]) [%] | Brd4 levels (Brd4 [5]) | DC50 (Brd3 [6]) [nM] | Dmax (Brd3 [6]; [13]) [%] | Dmax (Brd2 [7]) [%] | Dmax (Brd4 (S) [8]) [%] | Dmax (Brd4 (L) [9]) [%] | Brd4 degradation in the presence of bortezomib or degrasyn (Brd4 [10]; HAP1, 0.1 μM compound, 0.5 h pre-treatment with 10 μM bortezomib or 5 μM degrasyn) | Brd4 protein levels (Brd4 [10]; HAP1, 0.1 μM) | Brd4 degradation in the presence of degrasyn or I-BET726 (Brd4 [11]; HEK293, 0.1 μM compound, 0.5 h pre-treatment with 5 μM degrasyn or 1 μM I-BET726) | Brd4 protein levels (Brd4 [11]; HEK293, 0.1 μM) | Brd4 protein levels (Brd4 [12]) | SMILES |
| --- | --- | --- | --- | --- | --- | --- | --- | --- | --- | --- | --- | --- | --- | --- | --- | --- |
| ≤ 50 | ≤ 25 | ≤ 25 | ≤ 25 | ≤ 25 | minimal depletion | 51 to 500 | 26 to 50 | ≤ 25 | 26 to 50 | ≤ 25 |  |  |  |  |  | CCCC(NC(=O)/C=C/c1cccc(Br)n1)c1ccc(OCCOCCOCCOCCOCCOCCOCCNC(=O)c2ccc(-c3ccc4c(c3)[C@H](Nc3ccc(Cl)cc3)C[C@H](C)N4C(C)=O)cc2)cc1 (stereo partly shown) [Example 05IB11] |
|  |  |  |  |  |  |  |  |  |  |  | only blocked by bortezomib | depletion | only blocked by I-BET726 | depletion | depletion | Cc1ncsc1-c1ccc(CNC(=O)[C@@H]2C[C@@H](O)CN2C(=O)[C@@H](NC(=O)COCCOCCOCCNC(=O)C[C@@H]2N=C(c3ccc(Cl)cc3)c3c(sc(C)c3C)-n3c(C)nnc32)C(C)(C)C)cc1 [MZ1, reference compound] |
